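Step 1: Grow cells in 96-well plates. Step 2: Expose to compound for 48 hours at 5 concentrations. Step 3: Interpolate endpoints linearly; if unreached, use highest concentration. GI50 marks 50% less growth.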 Active and inactive are the calls of the source. No stated cut-off is given here; in the data, active = GI50 up to about 1.1 µM and inactive = higher.
Assays:
Test in all cases: NCI anticancer screen, dose series, 48 h
M14 = test system: M14
U-251 = test system: U-251
786-0 = test system: 786-0
IGROV-1 = test system: IGROV-1
NCI-H460 = test system: NCI-H460
OVCAR-8 = test system: OVCAR-8
HOP-92 = test system: HOP-92
HT-29 = test system: HT-29
SK-MEL-28 = test system: SK-MEL-28
SK-MEL-5 = test system: SK-MEL-5
PC-3 = test system: PC-3
OVCAR-5 = test system: OVCAR-5
NCI-H226 = test system: NCI-H226
HCT-116 = test system: HCT-116
Malme-3M = test system: Malme-3M
SNB-75 = test system: SNB-75
HOP-62 = test system: HOP-62
RXF 393 = test system: RXF 393
CCRF-CEM = test system: CCRF-CEM
NCI-H522 = test system: NCI-H522

SMILES | GI50 (M14) | GI50 (U-251) | GI50 (786-0) | GI50 (IGROV-1) | GI50 (NCI-H460) | GI50 (OVCAR-8) | GI50 (HOP-92) | GI50 (HT-29) | GI50 (SK-MEL-28) | GI50 (SK-MEL-5) | GI50 (PC-3) | GI50 (OVCAR-5) | GI50 (NCI-H226) | GI50 (HCT-116) | GI50 (Malme-3M) | GI50 (SNB-75) | GI50 (HOP-62) | GI50 (RXF 393) | GI50 (CCRF-CEM) | GI50 (NCI-H522)
Cc1cc(C)cc(Nc2cc(O)nc(O)n2)c1 | > 100 µM (inactive) | > 100 µM (inactive) | > 100 µM (inactive) | > 100 µM (inactive) | > 100 µM (inactive) | > 100 µM (inactive) | > 100 µM (inactive) | > 100 µM (inactive) | > 100 µM (inactive) | > 100 µM (inactive) | > 100 µM (inactive) | > 100 µM (inactive) | 58.3 µM (inactive) | > 100 µM (inactive) | > 100 µM (inactive) | 15.8 µM (inactive) | > 100 µM (inactive) | 90.4 µM (inactive) | > 100 µM (inactive) | 
O=C1C=CC(=O)c2c1ccc1c3ccccc3n(CCCCCCCCn3c4ccccc4c4ccc5c(c43)C(=O)C=CC5=O)c21 | > 100 µM (inactive) | > 100 µM (inactive) | > 100 µM (inactive) | > 100 µM (inactive) | > 100 µM (inactive) | > 100 µM (inactive) |  | > 100 µM (inactive) | > 100 µM (inactive) | > 100 µM (inactive) | > 100 µM (inactive) | > 100 µM (inactive) | > 100 µM (inactive) | > 100 µM (inactive) | > 100 µM (inactive) |  | > 100 µM (inactive) | > 100 µM (inactive) | > 100 µM (inactive) | > 100 µM (inactive)
C[C@H]1O[C@@H](C(C)(C)C)OC(=O)[C@@H]1C(OC(=O)c1ccccc1)c1cccc2ccccc12 (some centres undefined) | > 100 µM (inactive) | > 100 µM (inactive) | > 100 µM (inactive) | > 100 µM (inactive) | > 100 µM (inactive) | > 100 µM (inactive) |  | > 100 µM (inactive) | > 100 µM (inactive) | > 100 µM (inactive) | > 100 µM (inactive) | > 100 µM (inactive) | 8.87 µM (inactive) | > 100 µM (inactive) | > 100 µM (inactive) | > 100 µM (inactive) | > 100 µM (inactive) | > 100 µM (inactive) | > 100 µM (inactive) | > 100 µM (inactive)
COc1ccc(-c2csc(Cc3nc4ccccc4c(=O)n3-c3ccc(Cl)cc3)n2)cc1 | 21.7 µM (inactive) | 32.2 µM (inactive) | 28.6 µM (inactive) | 32.7 µM (inactive) | 33.5 µM (inactive) | 57.7 µM (inactive) |  | 35.6 µM (inactive) | 27 µM (inactive) | 19.3 µM (inactive) | 29.4 µM (inactive) | 23.9 µM (inactive) | 74.6 µM (inactive) | 19.8 µM (inactive) | > 100 µM (inactive) | > 100 µM (inactive) | > 100 µM (inactive) | > 100 µM (inactive) | 28.9 µM (inactive) | 45.7 µM (inactive)
COC(=O)[C@@H]1[C@H](O)[C@H](C)[C@H](O)[C@H](C)/C=C\C=C(\C)C(=O)Nc2c(C)c(OC(C)=O)c3c(c2O)C(=O)C(C)=C2OCOC(=C23)/C(C)=C/[C@@H](O)[C@H](O)[C@@H](C)[C@H]1OC(C)=O | 38.1 µM (inactive) | > 100 µM (inactive) | > 100 µM (inactive) | 67.9 µM (inactive) |  | 43.8 µM (inactive) | 80.5 µM (inactive) | 31.3 µM (inactive) | 55.6 µM (inactive) | 57.4 µM (inactive) | 31.8 µM (inactive) | > 100 µM (inactive) | > 100 µM (inactive) | 22.5 µM (inactive) | 34.6 µM (inactive) | > 100 µM (inactive) | > 100 µM (inactive) | > 100 µM (inactive) | 44.9 µM (inactive) | 
O=C1C=C(c2c(-c3ccccc3)[nH]c3ccccc23)C(=O)N1c1ccccc1 | 11.4 µM (inactive) | 13.5 µM (inactive) | 8.65 µM (inactive) | 14.5 µM (inactive) | 14.6 µM (inactive) | 4.46 µM (inactive) | 9.14 µM (inactive) | 7.18 µM (inactive) | 13.3 µM (inactive) | 8.75 µM (inactive) | 7.78 µM (inactive) | 14.8 µM (inactive) | 22.6 µM (inactive) | 6.49 µM (inactive) | 11.5 µM (inactive) |  | 0.135 µM (active) | 3.8 µM (inactive) | 4.02 µM (inactive) | 
COC(=O)C1=C(C(=O)OC)c2cc(OC)ccc2C(C(=S)N(C)C)S1 (centres undefined) | > 100 µM (inactive) | > 100 µM (inactive) | > 100 µM (inactive) | > 100 µM (inactive) | > 100 µM (inactive) | > 100 µM (inactive) | 0.0111 µM (active) |  | > 100 µM (inactive) |  | > 100 µM (inactive) | > 100 µM (inactive) | > 100 µM (inactive) | > 100 µM (inactive) | > 100 µM (inactive) | > 100 µM (inactive) | > 100 µM (inactive) | > 100 µM (inactive) |  | 
Cc1cnc2sn(-c3ccc(Oc4ccccc4)cc3)c(=O)c2c1 | 7.43 µM (inactive) | 17 µM (inactive) | 10.7 µM (inactive) | 14.7 µM (inactive) | 7.41 µM (inactive) | 28.8 µM (inactive) |  | 18.2 µM (inactive) | 10.3 µM (inactive) | 9.59 µM (inactive) | 13.4 µM (inactive) | 18.4 µM (inactive) | 18.2 µM (inactive) | 14 µM (inactive) | 1.7 µM (inactive) | 17.9 µM (inactive) | 12.9 µM (inactive) |  | 5.11 µM (inactive) | 5.58 µM (inactive)
O=[N+]([O-])C(=C1NCCN1)C(Cl)=C(Cl)Cl | > 100 µM (inactive) | > 100 µM (inactive) | > 100 µM (inactive) | > 100 µM (inactive) | > 100 µM (inactive) | > 100 µM (inactive) |  | > 100 µM (inactive) | > 100 µM (inactive) | > 100 µM (inactive) | > 100 µM (inactive) | > 100 µM (inactive) | > 100 µM (inactive) | > 100 µM (inactive) | > 100 µM (inactive) |  | > 100 µM (inactive) | > 100 µM (inactive) | 52.6 µM (inactive) | > 100 µM (inactive)
O=c1[nH]c(=O)n(CCOc2ccccc2)cc1Nc1ccccc1 | > 100 µM (inactive) | > 100 µM (inactive) | 61.2 µM (inactive) | > 100 µM (inactive) | > 100 µM (inactive) |  | 6.32 µM (inactive) | > 100 µM (inactive) | > 100 µM (inactive) | > 100 µM (inactive) | > 100 µM (inactive) | > 100 µM (inactive) |  | > 100 µM (inactive) | > 100 µM (inactive) |  | 22.3 µM (inactive) | 37.3 µM (inactive) | > 100 µM (inactive) | 6.11 µM (inactive)
N#Cc1ccc(/N=N/N2CCCC2)cc1 | > 100 µM (inactive) | > 100 µM (inactive) | > 100 µM (inactive) | > 100 µM (inactive) | > 100 µM (inactive) | > 100 µM (inactive) | > 100 µM (inactive) |  |  | 86.3 µM (inactive) | 83.8 µM (inactive) | > 100 µM (inactive) | > 100 µM (inactive) | > 100 µM (inactive) |  | > 100 µM (inactive) | > 100 µM (inactive) | > 100 µM (inactive) | 43.7 µM (inactive) | > 100 µM (inactive)
COc1cc(S(=O)(=O)N/N=C/c2cc(Br)c(O)c(OC)c2)c(OC)cc1NC(C)=O | > 100 µM (inactive) | > 100 µM (inactive) | 27 µM (inactive) | 50.8 µM (inactive) |  | > 100 µM (inactive) | 34.1 µM (inactive) | 34 µM (inactive) | > 100 µM (inactive) | 87.7 µM (inactive) | 62.2 µM (inactive) | > 100 µM (inactive) | > 100 µM (inactive) | 30.6 µM (inactive) |  | > 100 µM (inactive) | > 100 µM (inactive) | 42.6 µM (inactive) | 21.7 µM (inactive) | 
COc1ccc(Nc2nc3ccc(C(F)(F)F)cc3nc2C(=O)O)cc1 | 36.4 µM (inactive) | 32.1 µM (inactive) | 44.8 µM (inactive) | 17.1 µM (inactive) | 26 µM (inactive) | 30.8 µM (inactive) | 29.6 µM (inactive) | 36.9 µM (inactive) | 30.6 µM (inactive) | 26.5 µM (inactive) | 29.6 µM (inactive) | 28.2 µM (inactive) | 20.6 µM (inactive) | 34.7 µM (inactive) | 36.6 µM (inactive) | 34.1 µM (inactive) | 35.5 µM (inactive) | 22.9 µM (inactive) | 27 µM (inactive) | 
COC[C@@H](/N=C/c1ccc(OC)cc1)C(C)C | > 100 µM (inactive) | > 100 µM (inactive) | > 100 µM (inactive) | > 100 µM (inactive) | > 100 µM (inactive) | > 100 µM (inactive) |  | > 100 µM (inactive) | > 100 µM (inactive) | > 100 µM (inactive) | > 100 µM (inactive) | > 100 µM (inactive) |  | > 100 µM (inactive) | > 100 µM (inactive) | > 100 µM (inactive) | > 100 µM (inactive) | > 100 µM (inactive) | > 100 µM (inactive) | > 100 µM (inactive)
C/C=C(\C)CC/C=C/CO[Si](C)(C)C(C)(C)C | > 100 µM (inactive) |  | > 100 µM (inactive) | > 100 µM (inactive) | > 100 µM (inactive) | > 100 µM (inactive) |  | 42.5 µM (inactive) | > 100 µM (inactive) | > 100 µM (inactive) | > 100 µM (inactive) | > 100 µM (inactive) | > 100 µM (inactive) | 46.8 µM (inactive) | 51.1 µM (inactive) | > 100 µM (inactive) | > 100 µM (inactive) | > 100 µM (inactive) | 24.7 µM (inactive) | > 100 µM (inactive)
